According to publication PMC9413440, “An Iterative Approach Guides Discovery of the FabI Inhibitor Fabimycin, a Late-Stage Antibiotic Candidate with In Vivo Efficacy against Drug-Resistant Gram-Negative Infections” (ACS Central Science, 2022):
≈ marks a conversion by molar mass, not a printed value.

How the values were obtained:
E. coli ΔtolC (JW5503) = assay: MIC, broth microdilution (CLSI); assay type: cell-based, Escherichia coli
Experimental: (§1) II. Materials and Methods for Biological Experiments
(§2) S. aureus ATCC 29213 and E. coli MG1655 were obtained from the American Type Culture Collection (ATCC). E. coli BW25113 and E. coli JW5503 were obtained from the Keio Collection. AR-bank strains were obtained from the Centers for Disease Control and Prevention and FDA Antibiotic Resistance Isolate Bank.
(§3) Antimicrobial susceptibility tests
(§4) Susceptibility testing was performed in biological triplicate, unless noted otherwise, using the micro-dilution broth method as outlined by the Clinical and Laboratory Standards Institute. Bacteria were cultured with cation-adjusted Mueller Hinton broth (Sigma Aldrich, catalogue number: 90922). […]
(§5) NH3: m/z 391.2 → 171.0. Fabimycin: m/z 405.3 → 145.3. Power analysis was not used to determine the number of replicates. Error bars represent the standard error of the mean of three biological replicates. All compounds evaluated in biological assays were ≥95% pure.

S. aureus ATCC 29213 = assay: MIC, broth microdilution (CLSI); assay type: cell-based; conditions: Staphylococcus aureus, ATCC29213; S. aureus 29213
Experimental: as §1, §2, §3, §4, §5

E. coli MG1655 [1] = assay: MIC, broth microdilution (CLSI); assay type: cell-based; conditions: Escherichia coli
Experimental: as §1, §2, §3, §4, §5

E. coli MG1655 [2] = system: E. coli MG1655; parameters: method as in PMID 31740764; conditions: cited from earlier work
[3] = parameters: method as in earlier work; conditions: mice, 20% SBE-β-CD in H2O, IP, ref 19 (SI ref 3), cited from earlier work
K. pneumoniae AR-0113 = assay: MIC, broth microdilution (CLSI); assay type: cell-based; conditions: Klebsiella pneumoniae, AR0113; K. pneumoniae AR-0113 clinical isolate
Experimental: as §1, §2, §3, §4
(§6) Error bars represent the standard error of the mean of three biological replicates. All compounds evaluated in biological assays were ≥95% pure.

A. baumannii AR-0313 = assay: MIC, broth microdilution (CLSI); assay type: cell-based; conditions: Acinetobacter baumannii, AR0313; A. baumannii AR-0313 clinical isolate; † = dose-independent trailing growth
Experimental: as §1, §2, §3, §4, §6

A. baumannii AR-0273 = assay: MIC, broth microdilution (CLSI); assay type: cell-based; conditions: Acinetobacter baumannii, AR0273; A. baumannii AR-0273 clinical isolate
Experimental: as §1, §2, §3, §4, §5

A. baumannii AR-0299 = assay: MIC, broth microdilution (CLSI); assay type: cell-based; conditions: Acinetobacter baumannii, AR0299; A. baumannii AR-0299 clinical isolate; † = dose-independent trailing growth
Experimental: as §1, §2, §3, §4, §5

A. baumannii AR-0033 = assay: MIC, broth microdilution (CLSI); assay type: cell-based; conditions: Acinetobacter baumannii, AR0033; A. baumannii AR-0033 clinical isolate; † = dose-independent trailing growth
Experimental: as §1, §2, §3, §4, §5

K. pneumoniae BAA-2472 = assay: MIC, broth microdilution (CLSI); assay type: cell-based; conditions: Klebsiella pneumoniae, BAA2472
Experimental: as §1, §2, §3, §4, §5

E. coli AR-0085 = assay: MIC, broth microdilution (CLSI); assay type: cell-based; conditions: Escherichia coli, AR0085; E. coli AR-0085 clinical isolate
Experimental: as §1, §2, §3, §4, §5

K. pneumoniae AR-0066 = assay: MIC, broth microdilution (CLSI); assay type: cell-based; conditions: Klebsiella pneumoniae, AR0066; K. pneumoniae AR-0066 clinical isolate
Experimental: as §1, §2, §3, §4, §5

E. coli AR-0048 = assay: MIC, broth microdilution (CLSI); assay type: cell-based; conditions: Escherichia coli, AR0048; E. coli AR-0048 clinical isolate
Experimental: as §1, §2, §3, §4, §5

K. pneumoniae AR-0560 = assay: MIC, broth microdilution (CLSI); assay type: cell-based; conditions: Klebsiella pneumoniae, AR0560; K. pneumoniae AR-0560 clinical isolate
Experimental: as §1, §2, §3, §4, §5

E. coli FabI = molecular target: T1, E. coli FabI (Escherichia coli, UniProt P0AEK4); assay: In vitro FabI enzymatic inhibition assay; assay type: biochemical; conditions: EcFabI; Morrison's quadratic fit; 5 nM enzyme; read-out: Ki app
T1 construct: His(6) with TEV site (cleaved yes); made in house; host or cells: E. coli BL21(DE3)
T1 sequence (P0AEK4 whole entry): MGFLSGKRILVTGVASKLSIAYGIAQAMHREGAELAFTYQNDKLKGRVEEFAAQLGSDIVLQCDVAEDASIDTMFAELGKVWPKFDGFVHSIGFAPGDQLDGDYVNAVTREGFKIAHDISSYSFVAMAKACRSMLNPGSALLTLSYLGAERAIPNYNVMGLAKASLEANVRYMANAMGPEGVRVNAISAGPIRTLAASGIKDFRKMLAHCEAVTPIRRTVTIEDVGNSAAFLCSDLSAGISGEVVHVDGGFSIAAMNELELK
Experimental: (§7) supplemented with 100 µg/mL ampicillin at 37°C until OD600 reached 0.6-0.7. The cells were induced with 1mM IPTG and incubated for 20 hours at 18°C and spun down at 8000 rpm for 15 minutes. Cell pellet was resuspended in the lysis buffer (50 mM Tris-HCl pH 8.0, 500 mM Na Cl, 20 mM imidazole, 10% glycerol, 0.5 mM TCEP, protease inhibitor and Lysonase) and passed through microfluidizer followed by centrifugation and filtration to remove cell debris. The clarified lysate was supplemented with 20 mM imidazole and passed over a HisTrap column (Cytiva) pre-equilibrated with the wash buffer (50 mM Tris-HCl pH 8.0, 500 mM NaCl, 20 mM imidazole, 10% glycerol, 0.5 mM TCEP). The column was washed with the wash buffer and eluted over a 20-500 mM imidazole gradient. The appropriate fractions were pooled, and the histidine tag was removed by TEV cleavage. The protein mixture was passed over a HisTrap column to separate the cleaved protein from the uncleaved ones. The cleaved protein was pooled and passed over an S75 size exclusion column (GE LifeSciences) pre-equilibrated with 50 mM Tris-HCl pH 8.0, 500 mM NaCl, 0.5 mM TCEP and 10% glycerol. Fractions containing pure protein were pooled, concentrated at 10 mg/mL and stored at -80°C. […]
(§8) In vitro FabI enzymatic inhibition assay
(§9) Recombinant E. coli and A. baummani FabI enzymes were used in a continuous NADH absorbance assay (20 µL in 384w format). Compounds and the Crotonyl-CoA substrate (Sigma–Aldrich 28007) were dispensed into a plate (GeinerBio-One 781101). The reaction was initiated by the addition of a reaction master mix solution containing enzyme and NADH (Sigma–Aldrich N8129) suspended in reaction buffer (50 mM HEPES pH 7.4, 150 mM NaCl, 1 mM EDTA, 0.01 mg/mL BSA, 0.01% Tween). Final concentrations were 5 nM enzyme, 150 μM Crotonyl-CoA, 380 μM NADH, 0.05% DMSO in 1x reaction buffer. After shaking for 5 seconds the reaction was monitored at NADH absorbance (340nm, 25°C) using a Molecular Devices SpectraMax M5 microplate reader. The linear portion of the progress curve was fit using plate-reader software. Percentage activity was calculated relative to DMSO only and no-substrate controls in each plate and the data were fit to Morrison’s quadratic using Graphpad Prism 9.3 to obtain apparent inhibition constant (Ki app) values. […]
(§10) 480 Real-Time PCR System as a function of a temperature ramp (25-95°C; 0.1°/s) and the Tm was calculated using the […]

A. baumannii FabI = A. baumannii FabI (Acinetobacter baumannii, UniProt D0CAD5); assay: In vitro FabI enzymatic inhibition assay; assay type: biochemical; conditions: AbFabI; Morrison's quadratic fit; 5 nM enzyme; read-out: Ki app
Chain of A. baumannii FabI (D0CAD5 entry or part of it): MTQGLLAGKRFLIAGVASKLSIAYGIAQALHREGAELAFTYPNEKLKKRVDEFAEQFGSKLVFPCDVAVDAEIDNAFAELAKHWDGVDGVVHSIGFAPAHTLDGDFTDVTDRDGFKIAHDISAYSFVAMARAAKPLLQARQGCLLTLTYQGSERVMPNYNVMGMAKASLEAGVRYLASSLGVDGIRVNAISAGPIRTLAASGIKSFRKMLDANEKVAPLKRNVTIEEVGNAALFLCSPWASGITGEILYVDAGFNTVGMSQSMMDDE
Experimental: as §7, §8, §9, §10

[4] = system: K. pneumoniae clinical isolates (n=100); assay: MIC50/MIC90, clinical isolate panel; assay type: cell-based; conditions: Klebsiella pneumoniae; K. pneumoniae (n=100) clinical isolates
Description: Figure 4 Antimicrobial activity of fabimycin against clinical isolates. (A) The susceptibility of clinical isolates (Gram-negative species and S. aureus) to fabimycin, Debio-1452-NH3, and Debio-1452. MICs performed in biological triplicate. (B) Further exploration of the breadth of fabimycin’s antibacterial activity against diverse clinical isolate panels of K. pneumoniae and A. baumannii, as compared to levofloxacin. MICs performed in biological duplicate.
as §1, §2, §3, §4, §6

[5] = system: A. baumannii clinical isolates (n=100); assay: MIC50/MIC90, clinical isolate panel; assay type: cell-based; conditions: Acinetobacter baumannii; A. baumannii (n=100) clinical isolates
E. coli MG1655 [6] = assay: Serial passaging; assay type: cell-based, Escherichia coli; conditions: E. coli MG1655, subinhibitory concentration, 21 days
Experimental: Serial passaging procedure was done as reported in literature.5 Briefly, E. coli MG1655 cells were grown in 0.6 mL of MH media containing fabimycin and ciprofloxacin (control) at different concentrations. Cells were added to the respective compounds at 0.25X, 0.5X, 1X, 2X, and 4X to start. At 22-24 hours the cultures were checked for growth. […]
compound at varying concentrations based off of the MIC. This serial passaging was repeated for 21 days. […]
All cells were cultured […]
at 37 °C under a 5% CO2 environment. Cell lines were authenticated by a commercial vendor and inspected visually in house. Cell lines were not tested for Mycoplasma contamination. The media was prepared by the University of Illinois School of Chemical Sciences Cell Media Facility.
H. sapiens HFF-1, A549, and HepG2 cells were seeded (3,000-6,000 cells/well) in a 96-well plate (Greiner Bio-One;

Structure (SMILES)	MIC (E. coli ΔtolC (JW5503); Escherichia coli) [µg/mL]	MIC (S. aureus ATCC 29213) [µg/mL]	MIC (E. coli MG1655 [1]) [µg/mL]	MIC (K. pneumoniae AR-0113) [µg/mL]	MIC (A. baumannii AR-0313) [µg/mL]	MIC (A. baumannii AR-0273) [µg/mL]	MIC (A. baumannii AR-0299) [µg/mL]	MIC (A. baumannii AR-0033) [µg/mL]	MIC (K. pneumoniae BAA-2472) [µg/mL]	MIC (E. coli AR-0085) [µg/mL]	MIC (K. pneumoniae AR-0066) [µg/mL]	MIC (E. coli AR-0048) [µg/mL]	MIC (K. pneumoniae AR-0560) [µg/mL]	further results
Cc1c(CN(C)C(=O)/C=C/c2cnc3c(c2)CC2(CCC(CN)CC2)C(=O)N3)oc2ccccc12 (racemic) [(±)-6]	0.062 (≈ 0.131 µM)	0.031 (≈ 0.0656 µM)	16 (≈ 33.9 µM)	–	–	–	–	–	–	–	–	–	–	–
Cc1c(CN(C)C(=O)/C=C/c2cnc3c(c2)CC(N)C(=O)N3)oc2ccccc12 (centres unmarked) [Debio-1452-NH3, reference compound]	–	–	–	32 (≈ 82 µM)	32 (≈ 82 µM)	32 (≈ 82 µM)	32 (≈ 82 µM)	32 (≈ 82 µM)	16 (≈ 41 µM)	16 (≈ 41 µM)	32 (≈ 82 µM)	32 (≈ 82 µM)	32 (≈ 82 µM)	accumulation in Gram-negative bacteria (class in Figure 1A) (E. coli MG1655 [2]): Accumulator; Multi-day QD dosing, MTD ([3]; 5d): 50 mg/kg; Single-dose MTD [3]: 50 mg/kg; MIC (E. coli ΔtolC (JW5503); E. coli ΔtolC = JW5503, efflux-deficient): 0.062 µg/mL (≈ 0.159 µM); Ki (E. coli FabI): 9 ± 1 nM; Ki (A. baumannii FabI): 13 ± 2 nM
Cc1c(CN(C)C(=O)/C=C/c2cnc3c(c2)CCC(CN)C(=O)N3)oc2ccccc12 (racemic) [(±)-8]	0.125 (≈ 0.299 µM)	0.031 (≈ 0.0741 µM)	8 (≈ 19.1 µM)	32 (≈ 76.5 µM)	> 32	32 (≈ 76.5 µM)	32 (≈ 76.5 µM)	16 (≈ 38.2 µM)	32 (≈ 76.5 µM)	8 (≈ 19.1 µM)	32 (≈ 76.5 µM)	16 (≈ 38.2 µM)	16 (≈ 38.2 µM)	–
C[C@H]1COc2c(N3CCN(C)CC3)c(F)cc3c(=O)c(C(=O)O)cn1c23 [levofloxacin, reference compound]	–	–	–	–	–	–	–	–	–	–	–	–	–	MIC50 [4]: 0.5 µg/mL (≈ 1.38 µM); MIC90 [4]: 32 µg/mL (≈ 88.6 µM); MIC50 [5]: 4 µg/mL (≈ 11.1 µM); MIC90 [5]: 32 µg/mL (≈ 88.6 µM)
O=C(O)c1cn(C2CC2)c2cc(N3CCNCC3)c(F)cc2c1=O [ciprofloxacin, reference compound]	–	–	–	–	–	–	–	–	–	–	–	–	–	increase in the MIC after serial passaging (E. coli MG1655 [6]): 128 fold
Cc1c(CN(C)C(=O)/C=C/c2cnc3c(c2)CC2(CNC2)C(=O)N3)oc2ccccc12 [compound 2]	0.031 (≈ 0.0744 µM)	0.016 (≈ 0.0384 µM)	4 (≈ 9.6 µM)	16 (≈ 38.4 µM)	16 (≈ 38.4 µM)	8 (≈ 19.2 µM)	16 (≈ 38.4 µM)	8 (≈ 19.2 µM)	8 (≈ 19.2 µM)	4 (≈ 9.6 µM)	8 (≈ 19.2 µM)	8 (≈ 19.2 µM)	16 (≈ 38.4 µM)	–
